The source of these data is PMC12655037, “Mitochondrial-Targeted Triphenylphosphonium-Conjugated Ionophores with Enhanced Cytotoxicity in Cancer Cells” (Molecules, 2025).

Bounds are passed on as bounds.

The subject of assay [1] is PC3 human metastatic prostate cancer cells. In words: MTT assay, PC3 cells. Type of assay: cell-based. Conditions: PC-3, 72 h, read-out: IC50 PC3. (Tetrazolium dyes change colour on reduction, which living cells bring about.)
The test system of assay [2] is SW620 human metastatic colon cancer cells. In words: MTT assay, SW620 cells. Format: cell-based. Conditions: SW-620, 72 h, read-out: IC50 SW620.
Assay [3] deals with SW480 human primary colon cancer cells. In words: MTT assay, SW480 cells. Conditions: SW480, 72 h, read-out: IC50 SW480. Format: cell-based.
The subject of assay [4] is A549 human lung cancer cells. The experiment in a line: MTT assay, A549 cells. Particulars: A549, 72 h, read-out: IC50 A549. Type of assay: cell-based.
Assay [5] can be described thus: Black lipid membrane (BLM) ionic current. Particulars: at −60 mV, 50/150 mM KCl (cis/trans) gradient.
The test system of assay [6] is A549 cells. The experiment in a line: MitoTracker Green FM flow cytometry (mitochondrial mass), A549. Particulars: A549, 48 h at IC50 concentration.
Assay [7] concerns A549 cells. In words: MitoTracker Red CMXRos flow cytometry (mitochondrial membrane potential), A549. Particulars: A549, 48 h at IC50 concentration.
The test system of another assay is prostate cancer cells. Also on record: method as in PMID 21159605. Particulars: no significant effects on normal prostate epithelial cells; cited from earlier work.

The term IC50 denotes the concentration at which inhibition is half-maximal. Turning to `CC[C@@H](C(=O)[C@@H](C)[C@@H](O)[C@H](C)[C@@H]1O[C@@H]([C@@H](CC)C(=O)O)CC[C@@H]1C)[C@H]1O[C@]2(C=C[C@H](n3cc(C[P+](c4ccccc4)(c4ccccc4)c4ccccc4)nn3)[C@]3(CC[C@@](C)([C@H]4CC[C@](O)(CC)[C@H](C)O4)O3)O2)[C@H](C)C[C@@H]1C` [1a], the IC50 in assay [1] stood at 1.2 ± 0.2 µM; in assay [2] it was 16.4 ± 2.4 µM; in assay [3] it was 9 ± 3.6 µM; in assay [4], 2.9 ± 0.5 µM.
For `CC[C@@H](C(=O)[C@@H](C)[C@@H](O)[C@H](C)[C@@H]1O[C@@H]([C@@H](CC)C(=O)O)CC[C@@H]1C)[C@H]1O[C@]2(C=C[C@H](n3cc(COC(=O)CCC[P+](c4ccccc4)(c4ccccc4)c4ccccc4)nn3)[C@]3(CC[C@@](C)([C@H]4CC[C@](O)(CC)[C@H](C)O4)O3)O2)[C@H](C)C[C@@H]1C` [1b], in that order: 5.5 ± 1.4 µM, 16.8 ± 4.4 µM, 8.8 ± 2.4 µM and 3.9 ± 0.8 µM.
For `CC[C@@H](C(=O)[C@@H](C)[C@@H](O)[C@H](C)[C@@H]1O[C@@H]([C@@H](CC)C(=O)O)CC[C@@H]1C)[C@H]1O[C@]2(C=C[C@H](n3cc(CNC(=O)CCC[P+](c4ccccc4)(c4ccccc4)c4ccccc4)nn3)[C@]3(CC[C@@](C)([C@H]4CC[C@](O)(CC)[C@H](C)O4)O3)O2)[C@H](C)C[C@@H]1C` [1c], in that order: 12.9 ± 1.3 µM, 14 ± 4.1 µM, 9.8 ± 2 µM and 15.6 ± 9.1 µM.
For the compound `CCCC[P+](CCCC)(CCCC)Cc1cn([C@H]2C=C[C@]3(O[C@H]([C@@H](CC)C(=O)[C@@H](C)[C@@H](O)[C@H](C)[C@@H]4O[C@@H]([C@@H](CC)C(=O)O)CC[C@@H]4C)[C@@H](C)C[C@H]3C)O[C@@]23CC[C@@](C)([C@H]2CC[C@](O)(CC)[C@H](C)O2)O3)nn1` [1d], the IC50 in assay [1] is 3.6 ± 1.6 µM; in assay [2], 1.8 ± 0.2 µM; in assay [3], 2.5 ± 0.6 µM; in assay [4] it was 3.6 ± 0.5 µM. The “ionic current through artificial membrane” value in assay [5] is listed as −10 pA.
Consider `CC[C@@H](C(=O)[C@@H](C)[C@@H](O)[C@H](C)[C@@H]1O[C@@H]([C@@H](CC)C(=O)O)CC[C@@H]1C)[C@H]1O[C@]2(C=C[C@H](NC(=O)CCC[P+](c3ccccc3)(c3ccccc3)c3ccccc3)[C@]3(CC[C@@](C)([C@H]4CC[C@](O)(CC)[C@H](C)O4)O3)O2)[C@H](C)C[C@@H]1C` [1e], for which the IC50 in assay [1] was determined as 4 ± 0.7 µM; in assay [2], 10.9 ± 2.6 µM; in assay [3], 10.4 ± 2.3 µM; in assay [4], 5.1 ± 0.8 µM.
In the case of `CC[C@@H](C(=O)[C@@H](C)[C@@H](O)[C@H](C)[C@@H]1O[C@@H]([C@@H](CC)C(=O)OCCCCCC[P+](c2ccccc2)(c2ccccc2)c2ccccc2)CC[C@@H]1C)[C@H]1O[C@]2(C=C[C@@H](OC(=O)CCC(=O)OCCCCCC[P+](c3ccccc3)(c3ccccc3)c3ccccc3)[C@]3(CC[C@@](C)([C@H]4CC[C@](O)(CC)[C@H](C)O4)O3)O2)[C@H](C)C[C@@H]1C` [1f], in assay [5], the “ionic current through artificial membrane” value is −10 pA. In addition, the “cells positive for MTGreen fluorescence” value in the assay with A549 cells [6] stood at 61.6%.
Turning to `CCC1(C2OC(C3OC(O)(Cn4cc(C[P+](c5ccccc5)(c5ccccc5)c5ccccc5)nn4)C(C)CC3C)CC2C)CCC(C2(C)CCC3(CC(O)C(C)C(C(C)C(OC)C(C)C(=O)O)O3)O2)O1` (centres unmarked) [2a], the IC50 in assay [1] was found to be 0.4 ± 0.1 µM; in assay [2], 0.7 ± 0.2 µM; in assay [3], 0.5 ± 0.1 µM; in assay [4] it was 0.3 ± 0.02 µM.
For `CCC1(C2OC(C3OC(O)(Cn4cc(COC(=O)CCC[P+](c5ccccc5)(c5ccccc5)c5ccccc5)nn4)C(C)CC3C)CC2C)CCC(C2(C)CCC3(CC(O)C(C)C(C(C)C(OC)C(C)C(=O)O)O3)O2)O1` (centres unmarked) [2b], in that order: 0.7 ± 0.3 µM, 1.5 ± 0.2 µM, 0.8 ± 0.04 µM and 3.4 ± 1.1 µM.
For `CCC1(C2OC(C3OC(O)(Cn4cc(CNC(=O)CCC[P+](c5ccccc5)(c5ccccc5)c5ccccc5)nn4)C(C)CC3C)CC2C)CCC(C2(C)CCC3(CC(O)C(C)C(C(C)C(OC)C(C)C(=O)O)O3)O2)O1` (centres unmarked) [2c], in that order: 14.5 ± 2.1 µM, 10.6 ± 0.4 µM, 18.3 ± 0.4 µM and 14.9 ± 3.4 µM.
For `CCCC[P+](CCCC)(CCCC)Cc1cn(CC2(O)OC(C3CC(C)C(C4(CC)CCC(C5(C)CCC6(CC(O)C(C)C(C(C)C(OC)C(C)C(=O)O)O6)O5)O4)O3)C(C)CC2C)nn1` (centres unmarked) [2d], in that order: 3.1 ± 0.6 µM, 4.3 ± 0.01 µM, 3.5 ± 0.1 µM and 1.4 ± 0.4 µM.
For the compound `CCC1(C2OC(C3OC(O)(CNC(=O)CCC[P+](c4ccccc4)(c4ccccc4)c4ccccc4)C(C)CC3C)CC2C)CCC(C2(C)CCC3(CC(O)C(C)C(C(C)C(OC)C(C)C(=O)O)O3)O2)O1` (centres unmarked) [2e], the IC50 in assay [1] is above 100 µM; in assay [2], 28.1 ± 2.1 µM; in assay [3] it was 46.7 ± 3.1 µM; in assay [4], above 100 µM.
For `CCC1(C2OC(C3OC(O)(COC(=O)CCC(=O)OCCC[P+](c4ccccc4)(c4ccccc4)c4ccccc4)C(C)CC3C)CC2C)CCC(C2(C)CCC3(CC(O)C(C)C(C(C)C(OC)C(C)C(=O)OCCC[P+](c4ccccc4)(c4ccccc4)c4ccccc4)O3)O2)O1` (centres unmarked) [2f], the “MTRed CMXRos positive stained cells” value in the assay on A549 cells [7] is given as 22.5%. Moreover, the concentration for half-maximal inhibition (IC50) was 1.4 ± 0.1 µM in assay [1], 2.3 ± 0.4 µM in assay [2], 1.7 ± 0.3 µM in assay [3] and 1.3 ± 0.2 µM in assay [4].
As to `CC[C@@]1([C@@H]2O[C@@H]([C@H]3O[C@@](O)(CO)[C@H](C)C[C@@H]3C)C[C@@H]2C)CC[C@H]([C@]2(C)CC[C@]3(C[C@H](O)[C@@H](C)[C@@H]([C@@H](C)[C@@H](OC)[C@H](C)C(=O)O)O3)O2)O1` [MON, Monensin A], the “growth inhibition of prostate cancer cells” value in the assay with prostate cancer cells is recorded as “selectively inhibited the growth of prostate cancer cells at nanomolar concentrations”.
As to `CC[C@@H](C(=O)[C@@H](C)[C@@H](O)[C@H](C)[C@@H]1O[C@@H]([C@@H](CC)C(=O)O)CC[C@@H]1C)[C@H]1O[C@]2(C=C[C@@H](O)[C@]3(CC[C@@](C)([C@H]4CC[C@](O)(CC)[C@H](C)O4)O3)O2)[C@H](C)C[C@@H]1C` [SAL, Salinomycin, reference compound], the IC50 stood at 2.7 ± 0.1 µM in assay [1], 1.5 ± 0.06 µM in assay [2], 1.1 ± 0.04 µM in assay [3] and 1.6 ± 0.1 µM in assay [4].
